Where two headings read alike, the source gives them in different places.
Assays:
[1] = test system: rabbit embryos; settings: in vivo
Description: All animals were housed and fed according to IACUC approved procedures. The rabbits either remained untreated (n=4 per time point) or received 180 mg/kg of Thalidomide per day (n=5 per time point) starting on GD7. Dose levels and sensitive gestation windows were selected based on previously reported finding in Thalidomide teratogenicity studies (Christian MS, birth defect research, 2007)
Resorption sites, embryo mortality and gross observations were recorded during embryo collection. Embryo mortality was based on the absence of a heartbeat. There were no resorption sites or embryo and placental abnormalities in the control group. […] On Day 8, all 41 implantation sites from 5 rabbits appeared normal. On Day 9, 1/5 rabbits were affected and there was 1 resorption site out of a total of 52 implantation sites. On Day 10, 1/5 rabbit was affected and there was 1 resorption site out of a total of 38 implantation sites. On Day 11, 3/5 rabbits were affected, with 2 resorptions sites (5.41%) and 2 dead embryos (5.41%) out of 37 implantation sites. On Day 12, 5/5 rabbits were affected, with 3 resorption sites (6.98%) and 11 dead embryos (25.58%) out of […] implantation sites.
Cesarean sections were performed in each rabbit 3 hours after the last Thalidomide dose to ensure maximum plasma concentration of Thalidomide (CMax=3 hours) (Hui et al, Reproductive Toxicology, 2014). The uteri were removed, the implantation sites were counted and mortality and resorptions noted during embryo dissection. GD8 embryos were not dissected and were fixed in situ attached to the placental site and uterine wall. The entire implantation site was processed, embedded in paraffin and sectioned at 4 microns for immunohistochemistry. GD 9-12 embryos were collected with fetal membranes, fixed in 10% Neutral Buffered Formalin for 24 hours and transferred to 70% Ethanol. After fixation fetal membranes were removed and embryos processed, embedded in paraffin and sectioned at 4 microns for immunohistochemistry and in situ hybridization procedures.
More specifically, adult female New Zealand white rabbits between 5 and 8 months of age were time mated for embryo collection at Gestation Days (GD) 8, 9, 10, 11 and 12 as shown in Table 1 below.

[2] = molecular target: T1, ZFP91 (Homo sapiens, UniProt Q96JP5+Q96SW2); assay: Degradation of ZFP91 in Lenti-x 293 cells (control substrate); assay type: cell-based; settings: Lenti-x 293 cell lines expressing cereblon
T1 construct: endogenous in cells; host or cells: Lenti-x 293 cell line with CRISPR-cas9 cereblon knock-out, transfected with GST-cereblon

[3] = test system: ZFP91 cereblon-binding zinc finger (a.a. 395-423) / rabbit cereblon; assay: In vitro ubiquitination of ZFP91 zinc finger by rabbit cereblon; assay type: biochemical; settings: with thalidomide
Description: Glycine degron-containing zinc fingers are highlighted with stars. […] Ubiquitination reactions were separated by SDS-PAGE followed by anti-MBP western blot. […] Results in panels b and c are representative of 3 independent experiments.
Full length human cereblon, full length mouse cereblon, and full length rabbit cereblon were co-expressed with full length human DDB1 in SF9 insect cells in ESF921 medium in the presence of 50 uM zinc acetate. Cells were resuspended in buffer containing 50 mM Tris-HCl pH 7.5, 500 mM NaCl, 10 mM imidazole, 10% glycerol, 2 mM TCEP, 1× Protease Inhibitor Cocktail (San Diego Bioscience), and 40,000 U Benzonase (Novagen), and sonicated for 30 s. Lysate was clarified by high speed spin at 30,000 rpm for 30 minutes, and clarified lysate was incubated with Ni-NTA affinity resin (Qiagen) for 1 hour. Complex was eluted with buffer containing 500 mM imidazole, and the ZZ-domain-6×His tag removed by thrombin cleavage (Enzyme Research) overnight, combined with dialysis in 10 mM imidazole buffer. Cleaved eluate was incubated with Ni-NTA affinity resin (Qiagen), and the flow-through diluted to 200 mM NaCl for further purification over a Sephacryl S-400 16/60 column (GE Healthcare) in buffer containing 10 mM HEPES pH 7.0, 240 mM NaCl, and 3 mM TECP. […]

[4] = female, New Zealand white, 8 gestation day
[5] = female, New Zealand white, 9 gestation day
[6] = female, New Zealand white, 10 gestation day
[7] = female, New Zealand white, 11 gestation day
[8] = female, New Zealand white, 12 gestation day

T1 sequence (Q96JP5 2-570 limits assumed): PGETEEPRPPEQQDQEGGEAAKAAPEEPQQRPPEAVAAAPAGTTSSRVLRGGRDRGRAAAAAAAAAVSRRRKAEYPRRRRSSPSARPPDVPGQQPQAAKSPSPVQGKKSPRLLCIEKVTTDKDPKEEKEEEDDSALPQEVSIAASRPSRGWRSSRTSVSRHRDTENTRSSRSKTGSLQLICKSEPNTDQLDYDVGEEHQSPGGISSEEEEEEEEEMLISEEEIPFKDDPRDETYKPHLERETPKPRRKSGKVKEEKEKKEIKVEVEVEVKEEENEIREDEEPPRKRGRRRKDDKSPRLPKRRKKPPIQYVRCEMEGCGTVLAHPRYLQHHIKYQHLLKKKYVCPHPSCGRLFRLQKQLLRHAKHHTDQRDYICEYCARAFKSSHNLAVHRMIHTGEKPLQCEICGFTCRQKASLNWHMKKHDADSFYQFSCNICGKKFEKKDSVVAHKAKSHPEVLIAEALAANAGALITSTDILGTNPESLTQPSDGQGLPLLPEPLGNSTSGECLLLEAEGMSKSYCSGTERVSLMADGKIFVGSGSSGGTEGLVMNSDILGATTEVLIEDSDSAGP
T1 sequence (Q96SW2 whole entry): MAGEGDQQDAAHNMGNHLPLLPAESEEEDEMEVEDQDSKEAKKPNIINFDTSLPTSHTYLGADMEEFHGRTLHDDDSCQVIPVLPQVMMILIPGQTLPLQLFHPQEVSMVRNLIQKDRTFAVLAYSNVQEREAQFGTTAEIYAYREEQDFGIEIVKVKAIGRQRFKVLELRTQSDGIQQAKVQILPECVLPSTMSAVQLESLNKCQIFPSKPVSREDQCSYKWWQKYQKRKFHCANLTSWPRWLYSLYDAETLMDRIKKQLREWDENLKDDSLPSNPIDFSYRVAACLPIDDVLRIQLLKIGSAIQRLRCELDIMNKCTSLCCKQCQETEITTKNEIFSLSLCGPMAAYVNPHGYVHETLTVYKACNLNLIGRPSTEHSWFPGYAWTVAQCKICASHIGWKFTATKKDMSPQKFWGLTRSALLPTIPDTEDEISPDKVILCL
T1 sequence (Q16531 whole entry partner): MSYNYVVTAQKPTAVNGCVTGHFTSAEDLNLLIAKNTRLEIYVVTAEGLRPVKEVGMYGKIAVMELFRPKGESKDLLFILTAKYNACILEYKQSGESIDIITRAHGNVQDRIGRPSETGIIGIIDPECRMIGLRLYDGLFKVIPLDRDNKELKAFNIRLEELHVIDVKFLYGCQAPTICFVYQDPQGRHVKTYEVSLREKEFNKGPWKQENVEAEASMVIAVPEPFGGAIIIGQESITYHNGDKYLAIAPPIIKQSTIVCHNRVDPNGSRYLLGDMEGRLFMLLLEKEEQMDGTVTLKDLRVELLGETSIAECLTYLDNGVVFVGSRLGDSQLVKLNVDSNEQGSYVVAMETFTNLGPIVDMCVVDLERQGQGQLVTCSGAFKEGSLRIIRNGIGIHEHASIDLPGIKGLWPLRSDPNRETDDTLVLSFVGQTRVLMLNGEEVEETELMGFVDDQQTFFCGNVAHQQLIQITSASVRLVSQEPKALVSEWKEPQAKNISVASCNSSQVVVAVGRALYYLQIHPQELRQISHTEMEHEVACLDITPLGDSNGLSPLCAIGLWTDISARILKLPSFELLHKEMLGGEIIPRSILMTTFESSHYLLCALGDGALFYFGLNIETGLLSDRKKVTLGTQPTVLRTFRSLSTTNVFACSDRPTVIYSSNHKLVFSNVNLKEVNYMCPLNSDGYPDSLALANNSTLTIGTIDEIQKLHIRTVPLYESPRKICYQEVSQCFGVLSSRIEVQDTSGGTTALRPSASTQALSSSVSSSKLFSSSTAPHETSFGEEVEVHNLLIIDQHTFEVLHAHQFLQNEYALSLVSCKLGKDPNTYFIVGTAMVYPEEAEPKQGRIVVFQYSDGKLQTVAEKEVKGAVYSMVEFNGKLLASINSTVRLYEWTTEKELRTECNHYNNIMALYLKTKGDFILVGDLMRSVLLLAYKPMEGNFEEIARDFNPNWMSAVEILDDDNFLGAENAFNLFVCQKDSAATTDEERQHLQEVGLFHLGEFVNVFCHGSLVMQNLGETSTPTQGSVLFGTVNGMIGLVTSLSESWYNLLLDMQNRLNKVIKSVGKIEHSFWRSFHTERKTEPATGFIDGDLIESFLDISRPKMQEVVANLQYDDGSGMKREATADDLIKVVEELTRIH

O=C1CCC(N2C(=O)c3ccccc3C2=O)C(=O)N1 (stereo not drawn) [thalidomide]
Dead (dead embryos) ([1]; female, New Zealand white): 0 | Resorbed, share of implantation sites ([1]; female, New Zealand white): 1.92% | Average number of implantation sites [1, 4]: 8.2 | Resorbed (resorption sites) [1, 4]: 0 | Sites/Rabbit (implantation sites per individual rabbit; R = Resorbed, D = Dead) [1, 4]: 9, 9, 8, 7, 8 | Average number of implantation sites [1, 5]: 10.4 | Rabbits affected [1, 5]: 1/5 | Resorbed (resorption sites) [1, 5]: 1 | Average number of implantation sites [1, 6]: 8.75 | Dead (dead embryos) [1, 6]: 1 | Dead, share of implantation sites [1, 6]: 0.03% | Rabbits affected [1, 6]: 1/5 | Average number of implantation sites [1, 7]: 7.4 | Dead (dead embryos) [1, 7]: 2 | Dead, share of implantation sites [1, 7]: 5.41% | Rabbits affected [1, 7]: 3/5 | Resorbed (resorption sites) [1, 7]: 2 | Resorbed, share of implantation sites [1, 7]: 5.41% | Average number of implantation sites [1, 8]: 8.8 | Dead (dead embryos) [1, 8]: 11 | Dead, share of implantation sites [1, 8]: 25.58% | Rabbits affected [1, 8]: 5/5 | Resorbed (resorption sites) [1, 8]: 3 | Resorbed, share of implantation sites [1, 8]: 6.98% | Implantation frequency vs control [1]: no significant differences in implantation frequency | ZFP91 degradation [2]: exhibited compound-dependent degradation in all cell lines expressing cereblon | Ubiquitination of ZFP91 zinc finger (a.a. 395-423) by rabbit cereblon [3]: efficiently ubiquitinated by human and rabbit cereblon
